Experimental data taken from patent EP0322747B1, “A brain neuron protecting agent containing a dihydropyridine compound” (priority 1987, dated 1989).

Legend:
Assay in all cases: Prophylactic effect on ischemic breakdown of cytoskeletal proteins, 5-minute brain ischemia-reperfusion model
Format in all cases: in vivo, gerbil
[1] = system: MAP-2
Experimental: (§1) A gerbil was immobilized in supine position and median section was performed in the cervical region under local anesthesia. Then, the bilateral common carotid arteries were stripped off carefully not to injure the vagus and sympathetic nerves running in parallel, . Then, each common carotid artery was obstructed with a small clip and after an interval of 5, 10 or 15 minutes, the clips were removed. The animal was decapitated immediately, 4 days or 1 week after the removal of the clips, and the brain was isolated. Untreated animals served as controls and animals undergoing sham operation (involving the stripping procedure only) were also investigated. The isolated brain was sectioned under ice-cooling into the frontal cortex (upper 2/3, approximately corresponding to the 1st to the 5th layer, ∼80 mg), striatum (∼20 mg) and hippocampus (∼50 mg) and each portion was homogenized in 4 times volume of (v/w) of 0.01 M phosphate buffer (pH 7.2). Each homogenate was centrifuged at 100,000 G for 30 minutes to obtain a supernatant. Equal parts of these supernatants were subjected to SDS-polyacrylamide gel (5%) electrophoresis and the proteins, namely MAP-2 (MW: 250-260K) calspectin (MW: 230-240K) and clathrin (MW: 180K), were quantified by measuring the absorbances at 560 nm with a densitometer (CS-930, Shimazu), and the proportion of each protein to the total water-soluble protein (exactly, the integral sum of the absorbance areas) was calculated. In addition, the relative percentage to the value of the untreated control group was also calculated.
(§2) Two series of experiments were carried out. […] One hour after the reperfusion, the animal was killed by decapitation and the brain was removed. […] One hour after the final administration (day 5), the animal was decapitated and the brain was isolated. The isolated brain was subjected to fractionation and electrophoresis as described above.

[2] = system: calspectin; conditions: number of brain sites with significant effect
Experimental: as §1, §2

[3] = system: clathrin; conditions: for Total score, Clathrin: number of brain sites with significant effect
Experimental: as §1, §2

[4] = Left: dosed 1 hour before ischemia, killed 1 hour after ischemia, number of brain sites with significant effect
[5] = Right: dosed 1 hour before ischemia and for 4 subsequent days, number of brain sites with significant effect
[6] = sum of left and right (in brackets)
[7] = Left: dosed 1 hour before ischemia, killed 1 hour after ischemia
[8] = Right: dosed 1 hour before ischemia and for 4 subsequent days

Structure (SMILES): COCCOC(=O)C1=C(C)NC(C)=C(C(=O)OC(C)C)C1c1cccc([N+](=O)[O-])c1 (centres unmarked) [Nimodipine, nimodipine]
- Total score, MAP-2 [1, 4]: 2
- Total score, MAP-2 [1, 5]: 1
- Total score, MAP-2 [1, 6]: 3
- Total score, Calspectin [2, 7]: 0/0 (0)
- Total score, Calspectin [2, 8]: 0/0 (0)
- Clathrin protein concentration ([3]; Cortex, 0.01 mg/kg s.c. 1 hour before ischemia, 1 hour after ischemia): 81.9± 5.5 % of normal value
- Clathrin protein concentration ([3]; Cortex, 0.1 mg/kg s.c. 1 hour before ischemia and once a day for 4 days, 4 days after ischemia): 52.3± 9.5 % of normal value
- Clathrin protein concentration ([3]; Cortex, 0.1 mg/kg s.c. 1 hour before ischemia, 1 hour after ischemia): 81.8± 6.3 % of normal value
- Clathrin protein concentration ([3]; Cortex, 1 mg/kg s.c. 1 hour before ischemia and once a day for 4 days, 4 days after ischemia): 55.8± 8.5 % of normal value
- Clathrin protein concentration ([3]; Cortex, 1 mg/kg s.c. 1 hour before ischemia, 1 hour after ischemia): 85.9± 4.0 % of normal value
- Clathrin protein concentration ([3]; Cortex, 10 mg/kg s.c. 1 hour before ischemia and once a day for 4 days, 4 days after ischemia): 54.6± 5.7 % of normal value
- Clathrin protein concentration ([3]; Hippocampus, 0.01 mg/kg s.c. 1 hour before ischemia, 1 hour after ischemia): 52.1± 3.3 % of normal value
- Clathrin protein concentration ([3]; Hippocampus, 0.1 mg/kg s.c. 1 hour before ischemia and once a day for 4 days, 4 days after ischemia): 46.6± 4.2 % of normal value
- Clathrin protein concentration ([3]; Hippocampus, 0.1 mg/kg s.c. 1 hour before ischemia, 1 hour after ischemia): 56.7± 7.1 % of normal value
- Clathrin protein concentration ([3]; Hippocampus, 1 mg/kg s.c. 1 hour before ischemia and once a day for 4 days, 4 days after ischemia): 51.2±10.7 % of normal value
- Clathrin protein concentration ([3]; Hippocampus, 1 mg/kg s.c. 1 hour before ischemia, 1 hour after ischemia): 61.6±12.2 % of normal value
- Clathrin protein concentration ([3]; Hippocampus, 10 mg/kg s.c. 1 hour before ischemia and once a day for 4 days, 4 days after ischemia): 64.6±15.0 % of normal value
- Total score, Clathrin [3, 7]: 0/0 (0)
- Total score, Clathrin [3, 8]: 0/0 (0)
- Clathrin protein concentration ([3]; Striatum, 0.01 mg/kg s.c. 1 hour before ischemia, 1 hour after ischemia): 70.5±21.1 % of normal value
- Clathrin protein concentration ([3]; Striatum, 0.1 mg/kg s.c. 1 hour before ischemia and once a day for 4 days, 4 days after ischemia): 53.6±11.3 % of normal value
- Clathrin protein concentration ([3]; Striatum, 0.1 mg/kg s.c. 1 hour before ischemia, 1 hour after ischemia): 68.7±11.9 % of normal value
- Clathrin protein concentration ([3]; Striatum, 1 mg/kg s.c. 1 hour before ischemia and once a day for 4 days, 4 days after ischemia): 57.9± 5.3 % of normal value
- Clathrin protein concentration ([3]; Striatum, 1 mg/kg s.c. 1 hour before ischemia, 1 hour after ischemia): 69.8±12.7 % of normal value
- Clathrin protein concentration ([3]; Striatum, 10 mg/kg s.c. 1 hour before ischemia and once a day for 4 days, 4 days after ischemia): 62.0±10.2 % of normal value

Structure (SMILES): COC(=O)C1=C(C)NC(C)=C(C(=O)OCCN(C)Cc2ccccc2)C1c1cccc([N+](=O)[O-])c1 (centres unmarked) [Nicardipine, nicardipine]
- Total score, MAP-2 [1, 4]: 2
- Total score, MAP-2 [1, 5]: 2
- Total score, MAP-2 [1, 6]: 4
- Total score, Calspectin [2, 7]: 0/0 (0)
- Total score, Calspectin [2, 8]: 0/0 (0)
- Total score, Clathrin [3, 7]: 0/0 (0)
- Total score, Clathrin [3, 8]: 0/0 (0)
